≈ marks a conversion by molar mass, not a printed value.
What was measured:
[1] = target: human histamine 4 receptor (hH4R) (Homo sapiens (Human), UniProt Q9H3N8); experiment: Binding affinity of human histamine 4 receptor (hH4R), [3H] labeled histamine displacement; details: hH4R-overexpressed cell membrane, [3H] histamine
Procedure, shortened: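 Membranes of hH4R-overexpressing cells (25 μg) incubated with compound and [3H]histamine (diluted to 1 μM before addition) for 30 min at 27° C. Non-specific binding defined with histamine (100 μM before addition); bound radioligand collected by filtration on PEI-presoaked glass fibre, washed with 50 mM Tris-HCl pH 7.4, counted by scintillation (CPM).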

[2] = target: human histamine 3 receptor (hH3R) (Homo sapiens (Human), UniProt Q9Y5N1); experiment: Binding affinity of human histamine 3 receptor (hH3R), [3H] labeled N-α-methylhistamine displacement; details: hH3R-overexpressed cell membrane, [3H] N-α-methylhistamine
human histamine 3 receptor (hH3R), sequence (Q9Y5N1 whole entry): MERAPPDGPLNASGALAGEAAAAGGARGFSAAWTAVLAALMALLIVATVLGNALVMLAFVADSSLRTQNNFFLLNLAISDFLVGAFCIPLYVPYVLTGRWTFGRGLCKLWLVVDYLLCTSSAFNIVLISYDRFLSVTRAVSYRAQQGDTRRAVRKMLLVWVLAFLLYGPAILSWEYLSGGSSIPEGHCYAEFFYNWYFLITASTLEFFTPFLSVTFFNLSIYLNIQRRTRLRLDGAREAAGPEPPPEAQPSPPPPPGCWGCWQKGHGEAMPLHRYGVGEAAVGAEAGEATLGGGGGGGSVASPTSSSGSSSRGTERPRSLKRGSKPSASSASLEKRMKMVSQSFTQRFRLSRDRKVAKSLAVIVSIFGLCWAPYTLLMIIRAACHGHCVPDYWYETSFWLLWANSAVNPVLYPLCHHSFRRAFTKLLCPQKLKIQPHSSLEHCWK
Procedure, shortened: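 Membranes from cells overexpressing hH3R (15 μg) were incubated with compound and [3H]N-α-methylhistamine (20 μM stock) in 50 mM Tris-HCl pH 7.4, 5 mM MgCl2 for 30 min at 27 °C. Bound radioligand was counted by scintillation after filtration; 200 μM (R)(−)-α-methylhistamine stock defined non-specific binding; IC50 derived.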

[3] = Solubility in artificial gastrointestinal tract solution; type: physicochemical; details: for solubility at 1 h / solubility at 2 h: artificial gastrointestinal tract solution, thermodynamic from solid; for solubility at 1 h: fassgf or other biorelevant; for solubility at 2 h: fassif
Procedure, shortened: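 Two media were used: pH 1.2 NaCl/HCl with Triton X-100, and pH 6.5 phosphate buffer with sodium taurocholate and lecithin. Heated sample solutions were filtered to remove undissolved compound, diluted 1:1 with CH3CN, and solubility was measured by liquid chromatography.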

[4] = Mouse pharmacokinetics (oral); type: in vivo; details: ICR mouse, 5 mg/mL solution at 10 mL/kg; for Cmax / AUC(0-inf) / half-life: plasma, 50 mg/kg; for AUC(0-inf): read-out: Mouse pharmacokinetics AUCinf; for half-life: read-out: Mouse pharmacokinetics t1/2 (converted)
Description: (§1) The weight of each ICR mouse and SD rat was properly 20˜30 g and 200˜300 g, and dosage of the compound of the present invention was 10 mL/kg for mice and 5 mL/kg for rats, and administered orally using Zonde. Blood collection was performed at 0.25, 0.5, 1, 2, 4, 6, 8 and 24 hours by orbital venous blood collection using a capillary tube coated with an anticoagulant, and then plasma was isolated using a centrifuge and kept in a freezer.
(§2) Plasma collected from animals and standard concentration material were pretreated using solid-phase extraction, and concentration of the compound of the invention was determined using a liquid chromatography mass spectrometer (Agilent HPLC, API-3000).
(§3) According to the resulting concentration value, the pharmacokinetics parameter was found using WinNonlin (Version 6.2) and half-life (t1/2), maximum blood concentration (Cmax) and infinite area under the curve (AUCinf) are shown in Tables 6 and 7 below.

[5] = Metabolic stability in mouse microsome; details: mouse microsome 1 mg/mL, 5 μM compound, 1 mM NADPH
[6] = Metabolic stability in human microsome; details: human microsome 1 mg/mL, 5 μM compound, 1 mM NADPH
[7] = target: human serotonin 3 receptor (human 5-HT3 receptor) (Homo sapiens (Human), UniProt P46098); experiment: Binding affinity of human serotonin 3 receptor (performed at Cerep); details: for inhibition at 10 µM: read-out: % inhibition degree at 10 μM, human serotonin 3 receptor (h5-HT3R); for IC50: read-out: Binding affinity (IC50) of human serotonin 3 receptor (h5-HT3R)
human serotonin 3 receptor (human 5-HT3 receptor), sequence (P46098 24-478): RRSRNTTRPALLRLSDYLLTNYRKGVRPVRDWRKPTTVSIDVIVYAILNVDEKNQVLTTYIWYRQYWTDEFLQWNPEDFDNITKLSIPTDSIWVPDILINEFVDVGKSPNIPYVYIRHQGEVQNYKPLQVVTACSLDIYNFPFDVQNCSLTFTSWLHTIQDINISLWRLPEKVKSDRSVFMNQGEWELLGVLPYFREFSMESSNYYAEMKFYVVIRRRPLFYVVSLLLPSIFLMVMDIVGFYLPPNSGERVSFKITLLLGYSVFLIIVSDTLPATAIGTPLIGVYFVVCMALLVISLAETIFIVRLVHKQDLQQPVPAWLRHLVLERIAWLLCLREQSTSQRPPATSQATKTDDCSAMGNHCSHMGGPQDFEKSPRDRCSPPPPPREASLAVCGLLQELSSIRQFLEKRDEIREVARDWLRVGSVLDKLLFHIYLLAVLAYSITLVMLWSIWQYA
Description: The binding assays of the human serotonin 3 receptor for present invention were performed at Cerep (Poitiers, France), and the results of analysis are shown in Table 3.

[8] = Rat pharmacokinetics (oral); type: in vivo; details: SD rat, 2 mg/mL solution at 5 mL/kg
Description: as §1, §2, §3

[9] = test system: histamine-induced mast cell migration (trachea); experiment: Histamine-induced mast cell migration; type: in vivo, Balb/c mice; details: 20 mg/kg oral, 0.1 M histamine aerosol, 2 days
Description: Female, Balb/c mice (7 weeks old, 20±3 g) were purchased from OrientBio Co., Ltd.
The animals were housed under conditions of controlled temperature (23±3° C.), humidity (50±5%) and lighting with food and water available ad libitum.
Mice were dosed with either vehicle (20% cyclodextrin in second distilled water) or the compound by orally administration. The Compound (20 mg/kg) dissolved in a vehicle and administered orally at a volume of 10 mL/kg. After 15 minutes, mice were challenged by a 20 min aerosol inhalation of PBS (phosphate buffered saline) or 0.1 M histamine (dissolving in PBS). This process was repeated for 2 days. After a final challenge, the tracheae were cleared of blood via perfusion of PBS and tracheae were extracted, the tracheae were fixed in 10% (w/v) formaldehyde for subsequent paraffin cross-sectioning and toluidine blue staining. Total mast cells were calculated, and a mean was reported. (The Journal of Pharmacology and Experimental Therapeutics, 2004, 309, 404-413). Statistical analysis was analyzed using one-way ANOVA with Dunnett test. Values of p<0.05 were considered statistically significant.

[10] = test system: histamine-induced itching, ICR mice; experiment: Histamine-induced itching model in ICR mice; type: in vivo; details: 50 mg/kg oral, histamine 300 nmol intradermal, 20 min count
Description: Female, ICR mice (8 weeks old) were purchased from OrientBio Co., Ltd. The animals were housed under conditions of controlled temperature (23±3° C.), humidity (50±5%) and lighting with food and water available ad libitum.
The hair was clipped using clippers (8000AD, THRIVE) over the rostral part of the back 24 hours before the experiment under anesthesia with isoflurane. Histamine (300 nmol) was dissolved in saline and a volume of 40 μL injected intradermally into the rostral part of the back. Mice were dosed with either vehicle (20% cyclodextrin in second distilled water) or the compound by orally administration. The Compound (50 mg/kg) dissolved in a vehicle (20% cyclodextrin in second distilled water) and administered orally at a volume of 10 mL/kg.
Mice (n=10 per group) were divided into 3 groups (normal group, control group and experimental group). The animals were randomized for similar body weight distribution. A vehicle or the compound was administered 20 minutes before injection of histamine or saline. Immediately after intradermal injection, the animals were returned to an acrylic cage (approximately 30×30×30 cm, access production) composed of four cells, to which they had been acclimated for at least 1 hour before the experiment, for observation of itch responses. A camera (Samsung, VLUUNV30) was positioned above the mice to record their response. Itch was measured by blinded counting of the number of scratching in the 20 min period immediately after the intradermal injection. A number of scratching was defined as 3 or more individual rapid scratch movements with the hind paws around the injection site (J. Allergy Clin. Immunol. 2007, 19(1), 176-183). All data were analyzed by using Excel and Prism, and all values are expressed as the mean±S.E.M. The inhibitory effect of compounds is shown as a percentage of the maximal response to histamine (100% control group).
Statistical analysis was analyzed using one-way ANOVA with Dunnett test. Values of p<0.05 were considered statistically significant.

[11] = test system: oxazolone-induced atopic dermatitis, Balb/c mice; experiment: Oxazolone-induced atopic dermatitis model in Balb/c mice; type: in vivo; details: 100 mg/kg, BID, oral, days 8-28
Description: Female, Balb/c mice (6 weeks old, 20±3 g) were purchased from OrientBio Co., Ltd. The animals were housed under conditions of controlled temperature (23±3° C.), humidity (50±5%) and lighting with food and water available ad libitum.
On the beginning day (day 1), mice were sensitized by the topical application of 50 μL of 1% oxazolone in acetone and olive oil (4:1 ratio) on the abdominal skin. On day 8, 10, 12, 15, 17, 19, 22, 24 and 26, 25 μL of 0.2% oxazolone was applied topically on the inner side of right ear of each mouse. Between days 8 and 28, the compound of the invention was administered orally (10 mL/kg) twice a day in the morning and afternoon, and on days 12, 19 and 27, the thickness of the right ear of the mouse was measured. On day 28, the ear tissue of the mouse was extracted, fixed in 10% formalin solution, and then a tissue slide was prepared, stained with H&E (hematoxylin & eosin), and then the thickness of the ear was observed (Journal of Investigative Dermatology, 2008, 128, 79-86). Statistical analysis was analyzed using one-way ANOVA with Dunnett test. Values of p<0.05 were considered statistically significant.

[12] = first solution pH 1.2, 2 mg/mL sample, 37° C. 1 hour
[13] = second solution pH 6.5, 2 mg/mL sample, 37° C. 2 hours

human histamine 4 receptor (hH4R), sequence (Q9H3N8 whole entry): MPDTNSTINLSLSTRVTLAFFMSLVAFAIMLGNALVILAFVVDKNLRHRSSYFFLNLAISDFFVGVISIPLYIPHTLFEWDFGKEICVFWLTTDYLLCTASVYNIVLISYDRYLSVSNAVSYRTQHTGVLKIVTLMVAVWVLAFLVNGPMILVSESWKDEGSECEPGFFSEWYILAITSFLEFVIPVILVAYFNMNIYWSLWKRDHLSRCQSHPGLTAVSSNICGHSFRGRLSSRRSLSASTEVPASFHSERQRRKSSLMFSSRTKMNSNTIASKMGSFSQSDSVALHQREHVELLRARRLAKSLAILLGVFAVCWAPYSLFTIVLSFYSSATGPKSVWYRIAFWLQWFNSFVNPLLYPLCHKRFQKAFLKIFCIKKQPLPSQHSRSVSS

Brc1cnc2nc(N3CCNCC3)c3nncn3c2c1 [Compound 16, 8-Bromo-4-(piperazin-1-yl)pyrido[2,3-e][1,2,4]triazolo[4,3-a]pyrazine]
IC50 [1]: 65 nM
IC50 [2]: > 100000 nM
solubility at 1 h [3, 12]: 1930 µg/mL (≈ 5.78 mM)
solubility at 2 h [3, 13]: 758 µg/mL (≈ 2.27 mM)
Cmax [4]: 8270 ng/mL
AUC(0-inf) [4]: 15900 ng·h/mL
half-life [4]: 1.18 h
Metabolic stability (CLh. int), Mouse [5]: 10420 µL/min/mg
Metabolic stability (CLh. int), Human [6]: 4080 µL/min/mg

CNC1CN(c2nc3ncc(C#N)cc3n3cnnc23)C1 [Compound 25, 4-(3-(Methylamino)azetidin-1-yl)pyrido[2,3-e][1,2,4]triazolo[4,3-a]pyrazin-8-carbonitrile]
IC50 [1]: 100 nM
IC50 [2]: > 100000 nM
inhibition at 10 µM [7]: 0%
IC50 [7]: > 10000 nM
solubility at 1 h [3, 12]: 1930 µg/mL (≈ 6.87 mM)
solubility at 2 h [3, 13]: 1380 µg/mL (≈ 4.94 mM)
Cmax [4]: 9760 ng/mL
AUC(0-inf) [4]: 14000 ng·h/mL
half-life [4]: 1.17 h
Cmax ([8]; plasma, 10 mg/kg): 970 ng/mL
AUC(0-inf) ([8]; plasma, 10 mg/kg, read-out: Rat pharmacokinetics AUCinf): 2920 ng·h/mL
half-life ([8]; plasma, 10 mg/kg, read-out: Rat pharmacokinetics t1/2 (converted)): 2.21 h
Mast cell migration (% change from control group) [9]: 48.4^1%
Metabolic stability (CLh. int), Mouse [5]: 4590 µL/min/mg
Metabolic stability (CLh. int), Human [6]: 4160 µL/min/mg

Cc1nc2c3cc(Cl)cnc3nc(N3CCN(C)CC3)n2n1 [Compound 31, 9-Chloro-2-methyl-5-(4-methylpiperazin-1-yl)pyrido[3,2-e][1,2,4]triazolo[1,5-c]pyrimidine]
IC50 [1]: 16 nM
IC50 [2]: > 100000 nM
solubility at 1 h [3, 12]: 2010 µg/mL (≈ 6.33 mM)
solubility at 2 h [3, 13]: 1980 µg/mL (≈ 6.23 mM)
Cmax [4]: 11700 ng/mL
AUC(0-inf) [4]: 22400 ng·h/mL
half-life [4]: 1.79 h
Number of scratching (% changes from control group) [10]: 89.3^1%
Metabolic stability (CLh. int), Mouse [5]: 28630 µL/min/mg
Metabolic stability (CLh. int), Human [6]: 5190 µL/min/mg

Cc1nc2c3cc(Cl)cnc3nc(N3CCNCC3)n2n1 [Compound 32, 9-Chloro-2-methyl-5-(piperazin-1-yl)pyrido[3,2-e][1,2,4]triazolo[1,5-c]pyrimidine]
IC50 [1]: 73 nM
IC50 [2]: > 100000 nM
solubility at 1 h [3, 12]: 1350 µg/mL (≈ 4.43 mM)
solubility at 2 h [3, 13]: 1150 µg/mL (≈ 3.79 mM)
Cmax [4]: 10100 ng/mL
AUC(0-inf) [4]: 74900 ng·h/mL
half-life [4]: 5.39 h
Metabolic stability (CLh. int), Mouse [5]: 8390 µL/min/mg
Metabolic stability (CLh. int), Human [6]: 1030 µL/min/mg

CNC1CN(c2nc3ncc(Cl)cc3n3nnnc23)C1 [Compound 93, 1-(8-Chloropyrido[2,3-e]tetrazolo[1,5-a]pyrazin-4-yl)-N-methylazetidin-3-amine]
IC50 [1]: 65 nM
IC50 [2]: > 100000 nM
inhibition at 10 µM [7]: 18%
IC50 [7]: > 10000 nM
solubility at 1 h [3, 12]: 1970 µg/mL (≈ 6.78 mM)
solubility at 2 h [3, 13]: 1310 µg/mL (≈ 4.49 mM)
Cmax [4]: 10800 ng/mL
AUC(0-inf) [4]: 121000 ng·h/mL
half-life [4]: 15.6 h
Metabolic stability (CLh. int), Mouse [5]: 9470 µL/min/mg
Metabolic stability (CLh. int), Human [6]: 4480 µL/min/mg

CN1CCN(c2nc3ccc(Cl)cc3n3cnnc23)CC1 [reference compound]
IC50 [1]: 22 nM
IC50 [2]: 9000 nM
Solubility, First solution (pH = 1.2) [3, 12]: 1708.3 μg/mL
Solubility, Second solution (pH = 6.5) [3, 13]: 320.1 μg/mL
Mouse pharmacokinetics AUCinf [4]: 6650 ng·h/mL
Mouse pharmacokinetics Cmax [4]: 3840 ng/mL
Mouse pharmacokinetics t1/2 [4]: 3.49 h
Rat pharmacokinetics AUCinf [8]: 1060 ng·h/mL
Rat pharmacokinetics Cmax [8]: 490 ng/mL
Rat pharmacokinetics t1/2 [8]: 1.09 h
Mast cell migration (% change from control group) [9]: 23.1^1%
Ear epidermis thickness (% change from control group) [11]: 8.0%
Metabolic stability (CLh. int), Mouse [5]: 111630 µL/min/mg
Metabolic stability (CLh. int), Human [6]: 10990 µL/min/mg
